Measured values published in ChEMBL document CHEMBL1124788, “Conformation-activity relationship study of 5-HT3 receptor antagonists and a definition of a model for this receptor site” (J Med Chem, 1990).

Legend:
[1] = biological target: T1, Serotonin 3 receptor (5HT3) (Mus musculus) (UniProt Q9JHJ5+P23979); experiment: Binding affinity towards 5-hydroxytryptamine 3 receptor was determined by using [3H]-ICS 205-930 as radioligand in mouse N1E 115 cells; type: cell-based
[2] = biological target: Serotonin 3 (5-HT3) receptor; experiment: (§1) Potency at neuronal 5-hydroxytryptamine 3 receptor in the rabbit heart; type: protein-complex assay, Oryctolagus cuniculus
[3] = biological target: Serotonin 3 (5-HT3) receptor; experiment: Potency at neuronal 5-hydroxytryptamine 3 receptors in the rabbit heart; type: protein-complex assay, Oryctolagus cuniculus
[4] = biological target: Serotonin 3 (5-HT3) receptor; experiment: Potency to 5-hydroxytryptamine 3 receptor using [3H]GR-65630 as radioligand in rat cortex
[5] = biological target: T2, Serotonin 3 (5-HT3) receptor (Rattus norvegicus, UniProt P35563+Q9JJ16); experiment: Binding affinity to 5-hydroxytryptamine 3 receptor using [3H]GR-65630 as radioligand in rat cortex
T2 sequence (P35563 whole entry): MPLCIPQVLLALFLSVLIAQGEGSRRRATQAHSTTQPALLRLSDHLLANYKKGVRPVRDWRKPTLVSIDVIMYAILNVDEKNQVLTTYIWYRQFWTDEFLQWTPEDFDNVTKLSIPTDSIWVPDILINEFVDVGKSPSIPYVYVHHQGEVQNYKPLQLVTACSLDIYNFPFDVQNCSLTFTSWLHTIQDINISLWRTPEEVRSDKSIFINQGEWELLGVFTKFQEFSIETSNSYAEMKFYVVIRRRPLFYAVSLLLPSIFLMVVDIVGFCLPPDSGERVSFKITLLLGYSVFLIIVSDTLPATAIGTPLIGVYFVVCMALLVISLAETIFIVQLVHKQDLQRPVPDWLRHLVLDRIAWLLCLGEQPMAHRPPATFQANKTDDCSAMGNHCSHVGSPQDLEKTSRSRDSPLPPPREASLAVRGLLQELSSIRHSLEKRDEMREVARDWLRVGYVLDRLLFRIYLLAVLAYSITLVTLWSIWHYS
T2 sequence (Q9JJ16 whole entry): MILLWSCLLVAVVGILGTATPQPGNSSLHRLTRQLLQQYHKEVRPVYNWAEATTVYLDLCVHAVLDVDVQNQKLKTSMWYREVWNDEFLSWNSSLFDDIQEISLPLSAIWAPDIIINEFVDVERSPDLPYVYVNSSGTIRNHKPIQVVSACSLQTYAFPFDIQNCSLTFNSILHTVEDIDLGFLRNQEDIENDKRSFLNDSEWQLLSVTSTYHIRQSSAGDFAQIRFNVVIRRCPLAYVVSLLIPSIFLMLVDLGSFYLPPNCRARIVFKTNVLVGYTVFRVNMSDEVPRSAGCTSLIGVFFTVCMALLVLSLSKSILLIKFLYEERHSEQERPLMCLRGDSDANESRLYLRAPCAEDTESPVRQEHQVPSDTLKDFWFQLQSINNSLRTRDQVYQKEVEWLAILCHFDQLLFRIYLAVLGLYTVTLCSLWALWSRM

[6] = biological target: T2, Serotonin 3 (5-HT3) receptor; experiment: Binding affinity to 5-hydroxytryptamine 3 receptor using [3H]quipazine as radioligand in rat cortex
[7] = biological target: Serotonin 3 (5-HT3) receptor; type: protein-complex assay, Oryctolagus cuniculus
[8] = biological target: Serotonin 3 (5-HT3) receptor; experiment: Potency to 5-hydroxytryptamine 3 receptor entirely in guinea pig ileum; type: tissue-based, Cavia porcellus
[9] = biological target: T1, Serotonin 3 receptor (5HT3) (Mus musculus); experiment: as §1; type: protein assay

T1 sequence (P23979 whole entry, looked up): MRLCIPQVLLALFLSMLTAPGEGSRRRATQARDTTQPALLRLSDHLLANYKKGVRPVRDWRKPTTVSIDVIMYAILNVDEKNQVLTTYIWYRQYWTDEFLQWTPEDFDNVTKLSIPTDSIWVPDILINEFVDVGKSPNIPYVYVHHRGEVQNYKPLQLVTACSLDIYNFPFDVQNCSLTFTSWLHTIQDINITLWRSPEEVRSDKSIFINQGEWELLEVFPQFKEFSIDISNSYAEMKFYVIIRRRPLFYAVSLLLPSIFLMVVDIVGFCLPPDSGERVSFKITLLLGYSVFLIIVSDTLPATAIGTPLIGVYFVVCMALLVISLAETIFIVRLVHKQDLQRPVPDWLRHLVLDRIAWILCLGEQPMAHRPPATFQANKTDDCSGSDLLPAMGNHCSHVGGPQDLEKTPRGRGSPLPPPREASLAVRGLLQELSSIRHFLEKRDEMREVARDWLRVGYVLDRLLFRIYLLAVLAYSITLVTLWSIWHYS
T1 sequence (Q9JHJ5 whole entry, looked up): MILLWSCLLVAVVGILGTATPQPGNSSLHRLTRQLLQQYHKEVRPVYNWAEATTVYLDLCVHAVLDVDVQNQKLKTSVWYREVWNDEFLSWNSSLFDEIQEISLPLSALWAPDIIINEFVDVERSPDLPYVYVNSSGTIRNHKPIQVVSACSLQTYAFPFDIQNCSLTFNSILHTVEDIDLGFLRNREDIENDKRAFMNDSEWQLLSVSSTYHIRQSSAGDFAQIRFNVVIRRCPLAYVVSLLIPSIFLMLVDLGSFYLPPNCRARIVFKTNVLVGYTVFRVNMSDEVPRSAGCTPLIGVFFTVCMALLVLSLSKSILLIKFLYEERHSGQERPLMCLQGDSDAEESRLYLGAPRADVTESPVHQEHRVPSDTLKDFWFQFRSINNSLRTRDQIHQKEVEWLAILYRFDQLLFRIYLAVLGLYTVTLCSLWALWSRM

Cc1nccn1CC1CCc2c(c3ccccc3n2C)C1=O (stereo not given)
pKD [1]: 7.9

O=C(OC1CC2CCC(C1)N2)c1c[nH]c2ccccc12 (stereo not given)
pKD [1]: 9.14

CN1[C@@H]2CC[C@H]1C[C@H](OC(=O)c1ccccc1)C2
pA2 [2]: 7.2

CN1CC(=O)C2CCC(OC(=O)c3c[nH]c4ccccc34)C1C2 (stereo not given)
pA2 [3]: 9.8

Cc1[nH]cnc1CCC(=O)c1cn(C)c2ccccc12
Log Ki [4]: -8.79

CN1[C@@H]2CC[C@H]1C[C@@H](OC(=O)c1c[nH]c3ccccc13)C2 [TROPISETRON]
Ki [5]: 3.16 nM
pKD [1]: 9.09
Ki [6]: 0.603 nM

O=C(c1c[nH]c2ccccc12)C1CCNCC1
pA2 [3]: 8.3

C[N+]1(C)CCC(C(=O)c2c[nH]c3ccccc23)CC1.[I-]
pA2 [3]: 9.2

COC(=O)[C@@H]1C2CCC(C[C@@H]1OC(=O)c1ccccc1)N2 (stereo not given in full)
pA2 [2]: 7.7

CN1[C@@H]2CC[C@H]1C[C@@H](OC(=O)c1cc(Cl)cc(Cl)c1)C2 [BEMESETRON]
Ki [5]: 55 nM
pKD [1]: 8.21

CCN(CC)CCNC(=O)c1cc(Cl)c(N)cc1OC [METOCLOPRAMIDE]
pA2 [3]: 7.3
Ki [5]: 200 nM
pKD [1]: 6.65
Ki [6]: 229 nM

c1ccc2nc(N3CCNCC3)ccc2c1 [QUIPAZINE]
Ki [5]: 1.41 nM
pKD [1]: 8.69
Ki [6]: 1 nM

Cc1cc(C)cc(C(=O)OC2CC3CCC(C2)N3C)c1 (stereo not given)
pA2 [2]: 9

COc1cc(N)c(Cl)cc1C(=O)N[C@H]1CCN2CCC[C@@H]1C2
pA2 [3]: 8.9
pA2 [7]: 8.5
pA2 [8]: 7.6

CN1C2CCC1CC(OC(=O)c1cn(C)c3ccc(F)cc13)C2 (stereo not given)
pKD [9]: 9.8
